The text below walks through data of patent US6855730B2, “3-methylidenyl-2-indolinone modulators of protein kinase” (Sugen, Inc., priority 1998, dated 2005).

The structures appear in SMILES notation. Where only a bound is given, the exact number is not on record here.

The term IC50 denotes the midpoint of a concentration-inhibition curve.

Sequence of EGFR (P00533 25-1210): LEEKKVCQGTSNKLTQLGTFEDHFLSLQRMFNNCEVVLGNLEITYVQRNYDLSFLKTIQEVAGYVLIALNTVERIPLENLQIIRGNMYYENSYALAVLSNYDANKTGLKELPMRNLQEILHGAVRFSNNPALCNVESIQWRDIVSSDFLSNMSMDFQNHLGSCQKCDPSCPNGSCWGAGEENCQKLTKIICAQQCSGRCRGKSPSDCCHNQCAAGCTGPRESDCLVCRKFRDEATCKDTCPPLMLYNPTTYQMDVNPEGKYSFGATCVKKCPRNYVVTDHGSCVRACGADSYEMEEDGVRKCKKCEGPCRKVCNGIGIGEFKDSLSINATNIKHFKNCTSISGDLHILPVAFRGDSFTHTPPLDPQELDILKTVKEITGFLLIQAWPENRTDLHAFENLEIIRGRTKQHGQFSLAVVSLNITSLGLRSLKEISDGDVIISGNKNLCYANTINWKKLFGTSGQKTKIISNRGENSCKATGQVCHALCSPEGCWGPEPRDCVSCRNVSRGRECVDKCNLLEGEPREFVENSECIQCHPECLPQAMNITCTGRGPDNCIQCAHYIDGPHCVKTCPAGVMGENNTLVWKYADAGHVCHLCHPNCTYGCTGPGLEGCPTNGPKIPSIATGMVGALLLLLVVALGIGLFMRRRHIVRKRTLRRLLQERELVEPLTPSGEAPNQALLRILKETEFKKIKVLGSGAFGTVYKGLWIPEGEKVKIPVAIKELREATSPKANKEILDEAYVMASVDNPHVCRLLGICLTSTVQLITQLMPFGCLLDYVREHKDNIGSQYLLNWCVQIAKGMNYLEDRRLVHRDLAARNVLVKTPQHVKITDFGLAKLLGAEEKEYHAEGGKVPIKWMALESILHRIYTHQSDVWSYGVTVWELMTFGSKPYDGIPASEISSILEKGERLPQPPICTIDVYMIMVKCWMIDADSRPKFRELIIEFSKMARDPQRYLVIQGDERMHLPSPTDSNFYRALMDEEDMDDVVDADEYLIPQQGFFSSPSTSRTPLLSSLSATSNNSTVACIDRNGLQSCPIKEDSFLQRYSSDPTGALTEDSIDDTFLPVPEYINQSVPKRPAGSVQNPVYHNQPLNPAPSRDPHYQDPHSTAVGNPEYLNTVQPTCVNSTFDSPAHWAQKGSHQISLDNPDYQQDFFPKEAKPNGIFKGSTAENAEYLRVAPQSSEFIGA

For the test, the target named is EGFR (Homo sapiens, UniProt P00533). Kind of test: EGFR assay (cellular ELISA, NIH 3T3/C7 cells). More on the design: expressed in transfected cells; host or cells: NIH 3T3/C7. Type of test: cell-based. Conditions: read-out: cell EGF IC50. The procedure: EGF Receptor kinase activity in cells genetically engineered to express human EGF-R can be measured as described below:
Materials and Reagents. • a. […] 05-101 (UBI) (a monoclonal antibody recognizing an EGFR extracellular domain). • c. Anti-phosphotyosine antibody (anti-Ptyr) (polyclonal). • d. Detection antibody: Goat anti-rabbit IgG horse radish peroxidase conjugate, TAGO, Inc. Burlingame, Calif. • e. TBST buffer:
• Keep solution in dark at 4° C. until used. • h. Stock reagents of:
Pre-coat ELISA Plate • 1. […] Coated plates are good for up to 10 days when stored at 4° C. • 2. On day-of use, remove coating buffer and replace with blocking buffer (5% Carnation Instant NonFat Dry Milk in PBS). Incubate the plate, shaking, at room temperature (about 23° C. to 25° C.) for 30 minutes. Just prior to use, remove blocking buffer and wash plate 4 times with TBST buffer.
Seeding Cells • 1. […] Choose dishes having 80-90% confluence for the experiment. Trypsinize cells and stop reaction by adding 10% CS DMEM medium. Suspend cells in DMEM medium (10% CS DMEM medium) and centrifuge once at 1000 rpm at room temperature for 5 minutes. • 3. Resuspend cells in seeding medium (DMEM, 0.5% bovine serum), and count the cells using trypan blue. Viability above 90% is acceptable. Seed cells in DMEM medium (0.5% bovine serum) at a density of 10,000 cells per well, 100 μl per well, in a 96 well microtiter plate. Incubate seeded cells in 5% CO2 at 37° C. for about 40 hours.
Assay Procedures. • 1. Check seeded cells for contamination using an inverted microscope. Dilute test compounds stock (10 mg/ml in DMSO) 1:10 in DMEM medium, then transfer 5 μl to a test well for a test compounds drug dilution of 1:200 and a final DMSO concentration of 1%. Control wells receive DMSO alone. Incubate in 5% CO2 at 37° C. for one hour. • 2. Prepare EGF ligand: dilute stock EGF in DMEM so that upon transfer of 10 μl dilute EGF (1:12 dilution), 25 nM final concentration is attained. • 3. Prepare fresh 10 ml HNTG* sufficient for 100 μl per well wherein HNTG* comprises: HNTG stock (2.0 ml), milli-Q H2O (7.3 ml), EDTA, 100 mM, pH 7.0 (0.5 ml), Na3VO4 0.5 M (0.1 ml) and Na4(P2O7), 0.2 M (0.1 ml). • 4. Place on ice. • 5. After two hours incubation with drug, add prepared EGF ligand to cells, 10 μl per well, to yield a final concentration of 25 nM. Control wells receive DMEM alone. Incubate, shaking, at room temperature, for 5 minutes. • 6. Remove test compound, EGF, and DMEM. Wash cells twice with PBS. Transfer HNTG* to cells, 100 μl per well. Place on ice for 5 minutes. Meanwhile, remove blocking buffer from other ELISA plate and wash with TBST as described above. • 7. With a pipette tip securely fitted to a micropipettor, scrape cells from plate and homogenize cell material by repeatedly aspirating and dispensing the HNTG* lysis buffer. Transfer lysate to a coated, blocked, and washed ELISA plate. Incubate shaking at room temperature for one hour. • 8. Remove lysate and wash 4 times with TBST. Transfer freshly diluted anti-Ptyr antibody to ELISA plate at 100 μl per well. Incubate shaking at room temperature for 30 minutes in the presence of the anti-Ptyr antiserum (1:3000 dilution in TBST). • 9. Remove the anti-Ptyr antibody and wash 4 times with TBST. Transfer the freshly diluted TAGO 30 anti-rabbit IgG antibody to the ELISA plate at 100 μl per well. Incubate shaking at room temperature for 30 minutes (anti-rabbit IgG antibody: 1:3000 dilution in TBST). • 10. Remove detection antibody and wash 4 times with TBST. Transfer freshly prepared ABTS/H2O2 solution to ELISA plate, 100 μl per well. Incubate at room temperature for 20 minutes. ABTS/H2O2 solution: 1.2 μl 30% H2O2 in 10 ml ABTS stock. • 11. Stop reaction by adding 50 μl 5N H2SO4 (optional), and determine O.D. at 410 nm. • 12. The maximal phosphotyrosine signal is determined by subtracting the value of the negative controls from the positive controls. […]
(An ELISA detects its analyte on a solid surface through an enzyme-linked reagent.)
For `COc1ccc(/C=C2/C(=O)Nc3ccccc32)cc1C1CCCCC1` [Example 12, 3-(3-Cyclohexyl-4-methoxybenzylidene)-1,3-dihydroindol-2-one], the IC50 worked out at 71.9 µM.
For `COc1ccc(/C=C2/C(=O)Nc3cc(NC(C)=O)ccc32)cc1-c1cccs1` [Example 31, N-[3-(4-Methoxy-3-thiophen-2-ylbenzylidene)-2-oxo-2,3-dihydro-1H-indol-6-yl]-acetamide], the IC50 stood at 29.6 µM.
In the case of `CC(C)c1cc(/C=C2/C(=O)Nc3ccc(Cl)cc32)cc(C(C)C)c1OCCN1CCOCC1` [Example 24, 5-chloro-3-[3,5-diisopropyl-4-(2-morpholin-4-ylethoxy)-benzylidene]-1,3-dihydroindol-2-one] it was 38.5 µM.
For the molecule `COc1ccc(/C=C2/C(=O)Nc3ncccc32)cc1-c1ccccc1` [Example 71, 3-(6-Methoxybiphenyl-3-ylmethylene)-1,3-dihydropyrrolo[2,3-b]pyridin-2-one], the IC50 is above 100 µM.
Turning to `COc1ccc(/C=C2/C(=O)Nc3ccc(Cl)cc32)cc1C1CCCCC1` [Example 51, 5-Chloro-3-(3-cyclohexyl-4-methoxybenzylidene)-1,3-dihydroindol-2-one], the IC50 was above 100 µM.
In the case of `COc1cc(C)c(/C=C2/C(=O)Nc3ccc(F)cc32)cc1C(C)C` [Example 30, 5-Fluoro-3-(5-isopropyl-4-methoxy-2-methyl-benzylidene)-1,3-dihydroindol-2-one] it was 63.4 µM.
As to `CC(=O)Nc1ccc2c(c1)NC(=O)/C2=C/c1ccc(OCCN2CCOCC2)c(-c2cccs2)c1` [Example 40, N-{3-[4-(2-Morpholin-4-ylethoxy)-3-thiophen-2-ylbenzylidene]-2-oxo-2,3-dihydro-1H-indol-6-yl}-acetamide], the IC50 worked out at 79 µM.
In the case of `COc1cc(C)c(/C=C2/C(=O)Nc3ccc(Br)cc32)cc1C(C)C` [Example 36, 5-Bromo-3-(5-isopropyl-4-methoxy-2-methyl-benzylidene)-1,3-dihydroindol-2-one] it was 66.8 µM; in that of `Cc1cc(CCC(=O)O)c(/C=C2\C(=O)Nc3cc(-c4ccc(F)cc4)ccc32)[nH]1` [Example 107, 3-{2-[6-(4-Fluorophenyl)-2-oxo-1,2-dihydroindol-3-ylidenemethyl]-5-methyl-1H-pyrrol-3-yl}propionic acid], above 100 µM.
Take `COc1ccc2c(c1)/C(=C\c1cc(C(C)C)c(OC)c(C(C)C)c1)C(=O)N2` [Example 17, 3-(3,5-Diisopropyl-4-methoxybenzylidene)-5-methoxy-1,3-dihydroindol-2-one]: the IC50 came out at 68 µM.
Next, `COc1ccc(/C=C2/C(=O)Nc3ccc(F)cc32)cc1C1CCCCC1` [Example 43, 3-(3-Cyclohexyl-4-methoxybenzylidene)-5-fluoro-1,3-dihydroindol-2-one]: above 100 µM; `COc1ccc(/C=C2/C(=O)Nc3ccc(CCN4CCOCC4)cc32)cc1-c1ccsc1` [Example 26, 3-(4-Methoxy-3-thiophen-3-ylbenzylidene)-5-(2-morpholin-4-yl-ethyl)-1,3-dihydroindol-2-one]: 94 µM; `COc1ccc(/C=C2/C(=O)Nc3ccccc32)cc1-c1ccccc1` [Example 65, 3-(6-Methoxybiphenyl-3-ylmethylene)-1,3-dihydroindol-2-one]: above 100 µM.
With `COc1c(C)cc(/C=C2/C(=O)Nc3ncccc32)cc1C` [Example 56, 3-(4-Methoxy-3,5-dimethylbenzylidene)-1,3-dihydropyrrolo[2,3-b]pyridin-2-one], the IC50 was above 100 µM.
Next, `COc1ccc(/C=C2\C(=O)Nc3cccc(C)c32)cc1C(C)C` [Example 38, 3-(3-Isopropyl-4-methoxybenzylidene)-4-methyl-1,3-dihydroindol-2-one]: above 100 µM.
In the case of `COc1cc(C)c(C=C2C(=O)Nc3cc(NC(C)=O)ccc32)cc1C(C)C` [Example 27, N-[3-(5-Isopropyl-4-methoxy-2-methyl-benzylidene)-2-oxo-2,3-dihydro-1H-indol-6-yl]-acetamide] it was 30.6 µM; in that of `COc1cc(C=C2C(=O)Nc3ccccc32)c(-c2ccccc2OC)cc1OC` [Example 49, 3-(4,5,2′-Trimethoxybiphenyl-2-ylmethylene)-1,3-dihydroindol-2-one], above 100 µM.
In the case of `CCOC(=O)c1c(C)[nH]c(/C=C2\C(=O)Nc3cc(-c4ccccc4OC)ccc32)c1CCC(=O)O` [Example 110, 4-(2-Carboxyethyl)-5-[6-(2-methoxyphenyl)-2-oxo-1,2-dihydro-indol-3-ylidenemethyl]-2-methyl-1H-pyrrol-3-yl-carboxylic acid ethyl ester] it was above 100 µM.
For the molecule `Cc1cccc2c1/C(=C/c1cc3ccccc3[nH]1)C(=O)N2` [Example 166, 3-(1H-indol-2-ylmethylene)-4-methyl-1,3-dihydro-indol-2-one], the IC50 is above 100 µM.
Take `COc1ccc(/C=C2/C(=O)Nc3ccccc32)cc1-c1ccsc1` [Example 35, 3-(4-Methoxy-3-thiophen-3-ylbenzylidene)-1,3-dihydroindol-2-one]: the IC50 is above 100 µM.
In the case of `COc1c(C(C)C)cc(/C=C2/C(=O)Nc3cc(N)ccc32)cc1C(C)C` [Example 32, 6-Amino-3-(3,5-diisoprotyl-4-methoxy-benzylidene)-1,3-dihydroindol-2-one] it was above 100 µM; in that of `COc1ccc(/C=C2/C(=O)Nc3ccc(Cl)cc32)cc1-c1ccccc1` [Example 67, 5-Chloro-3-(6-methoxybiphenyl-3-ylmethylene)-1,3-dihydroindol-2-one], above 100 µM.
In the case of `COc1c(C(C)C)cc(/C=C2/C(=O)Nc3ncccc32)cc1C(C)C` [Example 74, 3-(3,5-Diisopropyl-4-methoxybenzylidene)-1,3-dihydropyrrolo[2,3-b]pyridin-2-one] it was above 100 µM; in that of `COc1cc(C)c(/C=C2/C(=O)Nc3ncccc32)cc1C(C)C` [Example 45, 3-(5-Isopropyl-4-methoxy-2-methylbenzylidene)-1,3-dihydro-pyrrolo[2,3-b]pyridin-2-one], above 100 µM.
As for `CCOC(=O)c1c(C)[nH]c(/C=C2\C(=O)Nc3cc(-c4ccc(F)cc4)ccc32)c1CCC(=O)O` [Example 108, 4-(2-Carboxyethyl)-5-[6-(4-fluorophenyl)-2-oxo-1,2-dihydro-indol-3-ylidenemethyl]-2-methyl-1H-pyrrole-3-carboxylic acid ethyl ester], the IC50 is above 100 µM.
In the case of `COc1cc(C)c(C=C2C(=O)Nc3ccccc32)cc1C(C)C` [Example 8, 3-(5-Isopropyl-4-methoxy-2-methylbenzylidene)-1,3-dihydroindol-2-one] it was 43.7 µM; in that of `Cc1cccc2c1/C(=C/c1ccc3c(c1)CCC(C)(C)O3)C(=O)N2` [Example 41, 3-(2,2-Dimethylchroman-6-ylmethylene)-4-methyl-1,3-dihydroindol-2-one], above 100 µM.
Take `Cc1cc(CCC(=O)O)c(/C=C2\C(=O)Nc3ccc(Cl)cc32)[nH]1` [Example 111, 3-[2-(5-Chloro-2-oxo-1,2-dihydroindol-3-ylidenemethyl)-5-methyl-1H-pyrrol-3-yl]propionic acid]: the IC50 is above 100 µM.
